Test results as given in patent US9770430B2, “Desferrioxamine-metal complexes for the treatment of immune-related disorders” (priority 2009, dated 2017).
“And” between values parts separate entries of the source, which are not always exact repeats. Equal values may be shown once.

Tests used:
[1] = system: high energy diet-induced Type II diabetes; experiment: Sand rat high energy diet Type II diabetes model, glucose tolerance test and cataract formation (Example 6); type: in vivo, sand rat (Psammomis obesus); details: for three hours response to an orally-administered glucose dose, value above the zero (standard diet Group I): 200 mg glucose per 100 g body weight, end of 53 day experiment, high energy diet; for Cataract formation: high energy diet (HE) sand rats, 53 days
Text: (§1) Sand rats (Psammomis Obesus) were used as a model for Type 2 diabetes. The sand rats transferred onto high energy diet develop a severe form of Type 2 diabetes, including high blood glucose level, increase in body weight, and cataract development (eye lens opacification).
(§2) The sand rats were divided into groups. The animals from the Group I received the standard diet, serving as a control, whereas animals from the other indicated groups received high energy diet, leading to diabetes development. The high-energy diet ed mice were either untreated, or treated with intra-peritoneal injections of 2.5 mg/kg body weight Ga-DFO, Zn-DFO, DFO alone, Zn, Ga or lipoic acid (LA), either twice or three times per week, as indicated, for the duration of the experiment. The blood glucose and body weight of the animals were monitored throughout the experiment.
Forty two sand rats were divided into seven groups, six animals in each. The animals from Group I received the standard diet and used as a control. The animals from the Groups II, III, IV, V, VI and VII received high energy diet, leading to diabetes development, while Groups III, IV and VII were treated with Zn-DFO, Ga-DFO and DFO alone, respectively. The Groups V and VI received Zn and Ga, in their chloride salt form, alone respectively. Administration of the different treatments was as described, and the experiment lasted for 53 days. Glucose tolerance test was performed at the end of experiment. The cataract formation was tested as well.

[2] = complex of desferrioxamine with the named metal ion; cited from earlier work
[3] = pH limit of the complex solution during preparation (loss of biological activities); type: physicochemical; details: pH above 5.6; solution reacts with air-containing CO2
[4] = system: ovalbumin-induced asthma; experiment: Ovalbumin-induced asthma, prophylactic treatment model (lung ferritin); type: in vivo, BALB/c mice; details: asthmatic mice, 1 and 0.3 mg/kg i.p., then 0.3 mg/kg i.n.
Experimental: Ferritin concentration was quantified using an indirect ‘sandwich’ ELISA assay in accordance with a procedure developed previously in our laboratory. Briefly, ELISA 96-well micro plates were pre-coated with goat anti-human L-ferritin antibody. Rabbit anti-human H-ferritin was used as the secondary antibody. Plates were treated with goat anti-rabbit IgG conjugated with β-galactosidase. Chlorophenol Red-β-D-Galactopyranoside was then added and the plates analyzed using a microplate reader with a test (570 nm) and reference (630 nm) filters.
• Twelve-week-old Balb/c mice were administered 10 μg (100 μl) ovalbumin (OVA) dissolved with 3 mg Al(OH)3 in 0.9% saline intraperitoneally (i.p.) on days 0, 7 and 14, and 10 μg (50 μl) OVA intranasally (i.n.) on days 20, 23, 25, 27, 29, 31, 34, 36, 37, 41, 43 and 45. […]
(§3) To estimate the anti-asthmatic effect of the complexes the following parameters were measured: the concentration of ferritin in the lungs, the presence of inflammatory cells infiltration into the lungs, and the amounts of macrophages, eosinophils, lymphocytes and neutrophils in bronchoalveolar lavages (BALs).

[5] = system: ovalbumin-induced asthma; experiment: Ovalbumin-induced asthma, treatment of chronic asthma model (BAL cells, lung histology); type: in vivo, BALB/c mice; details: Mean ± SE
Experimental: • Twelve-week-old Balb/c mice were administered 10 μg (100 μl) ovalbumin (OVA) dissolved with 3 mg Al(OH)3 in 0.9% saline intraperitoneally (i.p.) on days 0, 7 and 14, and 10 μg (50 μl) OVA intranasally (i.n.) on days 20, 23, 25, 27, 29, 31, 34, 36, 37, 41, 43 and 45. For intranasal administration, mice were anesthetized with inhaled N-flurane and instilled with OVA i.n. with a micropipette. • Three-week-old BALB/c mice were sensitized (×3) with intra-peritoneal (i/p) injection (100 μl OVA solution, containing 0.3 mg OVA and 6.7 mg Al(OH)3, in 1 ml PBS) on days 0, 7 and 14. On days 14, 15, 17, 21 and 23 the mice were further sensitized with intranasal sprinklings (50 μl, each) of OVA in PBS solution containing 2 mg/ml OVA, as following: mice were anesthetized with inhaled N-flurane and instilled with OVA intra-nasally using a micropipette. Twenty-four hours after the last administration of OVA, the mice were sacrificed. Methacholine Challenge and Collection of Histologic Sections and Biochemical Samples
Either Zn-DFO, Ga-DFO, Zn-DFO and Ga-DFO 1:1 combination (herein metal complexes) or saline were administered as follows: on days −5, −1, 7 and 14, 1 mg/kg body weight metal complexes or saline were administered intraperitoneally (i.p.). On days 0, 6, 8, 13 and 15, 0.3 mg/kg body weight metal complexes or saline were administered i.p. On days 20, 23, 25, 27, 29, 31, 34, 36, 37, 41, 43 and 45, 0.3 mg/kg body weight metal complexes or saline were administered intranasally (i.n.). Twenty-four hours after the last sensitization, mice were anesthetized with urethane and the lungs were lavaged 4 times with 0.5 ml sterile PBS. Animals in the “control” group (non-asthmatic—saline treated, but not sensitized) (n=6) received saline injections and instillations, using the same regime as the asthmatic and treated animals. Animals of the “asthmatic” group (sensitized and saline-treated, rather than complex-treated) (n=6) received saline instead of the respective complex, under the same regime.
For the treatment of chronic asthma model, a similar experimental protocol was followed, with the following modifications: 1 mg/kg body weight metal complexes or saline were administered i.p. on day 0 (instead of days −5 and −1) and a further 0.3 mg/kg complexes or saline were administered on day 1. In this model, the effects of the complexes were investigated further by histological examination of lung sections stained with either haematoxylin-eosine or PAS/AB (periodic acid-Schiff/alcan blue).
as §3

[6] = system: high energy diet-induced Type II diabetes; experiment: Sand rat high energy diet Type II diabetes model, blood glucose and body weight (Example 5); type: in vivo, sand rat (Psammomis obesus)
Text: as §1, §2
The sand rats were divided into four groups (6 animals in each). Animals from Group I received the standard diet, serving as a control. The animals from the Groups II, III and W received high energy diet, leading to diabetes development, while Groups III and IV were treated with Ga-DFO and lipoic acid (LA), respectively. The intra-peritoneal injections of 2.5 mg Ga-DFO or LA per kg body weight were performed twice a week, for 61 days. The blood glucose and body weight of the animals were monitored during all the experiment.

[7] = Day 0, 2.5 mg/kg i.p. twice a week, mean, SD in the line below
[8] = Day 7, 2.5 mg/kg i.p. twice a week
[9] = Day 21, 2.5 mg/kg i.p. twice a week
[10] = Day 21, 2.5 mg/kg i.p. twice a week, 2.5 mg/kg
[11] = Day 32, 2.5 mg/kg i.p. twice a week
[12] = Day 42, 2.5 mg/kg i.p. twice a week
[13] = Day 49, 2.5 mg/kg i.p. twice a week
[14] = Day 56, 2.5 mg/kg i.p. twice a week
[15] = Day 61, 2.5 mg/kg i.p. twice a week
[16] = Day 61, 2.5 mg/kg i.p. twice a week, 2.5 mg/kg

Compound	three hours response to an orally-administered glucose dose, value above the zero (standard diet Group I) [1] [mg/dL]	Cataract formation [1] [%]	relative stability constants for the complexes of desferrioxamine [2]	Blood glucose level [6, 7] [mg/dL]	Body weight [6, 7] [g]	Blood glucose level [6, 8] [mg/dL]	Body weight [6, 8] [g]	Body weight [6, 9] [g]	Blood glucose level [6, 10]	Blood glucose level [6, 11] [mg/dL]	Body weight [6, 11] [g]	Blood glucose level [6, 12] [mg/dL]	Body weight [6, 12] [g]	Blood glucose level [6, 13] [mg/dL]	Body weight [6, 13] [g]	Blood glucose level [6, 14] [mg/dL]	Body weight [6, 14] [g]	Body weight [6, 15] [g]	Blood glucose level [6, 16]	further results
[Cl-].[Cl-].[Zn+2] [Zn, Zinc chloride]	38	22																		
CC(=O)N([O-])CCCCCNC(=O)CCC(=O)N([O-])CCCCCNC(=O)CCC(=O)N([O-])CCCCCN.[Fe+3] [Fe(III), reference compound]			10^31																	
CC(=O)N(O)CCCCCNC(=O)CCC(=O)N(O)CCCCCNC(=O)CCC(=O)N(O)CCCCCN [DFO, N′-{5-[acetyl(hydroxy)amino]pentyl}-N-[5-({4-[(5-aminopentyl)(hydroxy)amino]-4-oxobutanoyl}amino)pentyl]-N-hydroxy-succinamide]	150	25																		
CC(=O)N([O-])CCCCCNC(=O)CCC(=O)N([O-])CCCCCNC(=O)CCC(=O)N([O-])CCCCCN.[Ga+3] [Ga-DFO, gallium-desferrioxamine]	5	11	10^28	91.8	131.6	94.6	154.0	173.2	176 ± 46 mg/dL and 176.4 mg/dL	81.2	180.4	89.0	192.4	122.0	204.0	129.2	212.4	214.4	98 ± 29 mg/dL and 97.8 mg/dL	effect of higher pH on the Ga-DFO solution [3]: marked loss of the biological activities; lung ferritin level [4]: 0.5 ± 0.3 µg/mg; Eosinophils in BAL fluid [5]: 0.2 ± 0.02^# 10^4 cells/ml; Lymphocytes in BAL fluid [5]: 0.3 ± 0.06^# 10^4 cells/ml; Macrophages in BAL fluid [5]: 3.3 ± 0.2^# 10^4 cells/ml; Neutrophils in BAL fluid [5]: 0.3 ± 0.07^# 10^4 cells/ml; Total WBC in BAL fluid [5]: 4.5 ± 0.6^# 10^4 cells/ml
O=C(O)CCCCC1CCSS1 (stereo not shown) [LA, Lipoic acid, reference compound]				92.8	113.4	97.4	137.0	160.4	259 ± 49 mg/dL and 259.4 mg/dL	176.4	170.2	196.4	189.2	185.2	201.4	220.6	211.8	218.0	168 ± 33 mg/dL and 167.8 mg/dL	
[Cl-].[Cl-].[Cl-].[Ga+3] [Ga, Gallium (III) chloride]	25	36																		
